Literature values as cited in PMC4546577 (ACS chemical biology, 2015).

Details: sulphydryl group in MeaF; ref [69] PerrinDD, Dissociation constants of organic bases in aqueous solution, 1965

For `N[C@@H](Cc1cccc(NCCS)c1)C(=O)O` [MeaF, 3-(2-mercapto-ethyl)amino-phenylalanine], the “pKa (sulphydryl group)” value is listed as ~ 8.5.
